This is an account of results in US12410208B2, “(2-acetamidyl)thio-beta-D-galactopyranoside derivatives” (Idorsia Pharmaceuticals Ltd, priority 2020, dated 2025).

One assay deals with human Gal-1 (hGal-1) (Homo sapiens, UniProt P09382). In words: Competitive binding assay: biotinylated hGal-1 binding to microplate-adsorbed asialofetuin (ASF), spectrophotometric. The settings on record: hGal-1 binding to asialofetuin; Table 15; R and S epimers of selected Examples also listed; read-out: IC50 (Galectin-1 inhibition). On the procedure:
(§1) Biological Assay Evaluation of Compound Inhibitory Activity (IC50)
The inhibitory activity of compounds is determined in competitive binding assays. This spectrophotometric assay measures the binding of biotinylated human Gal-3 (hGal-3) or human Gal-1 (hGal-1), respectively, to a microplate-adsorbed glycoprotein, asialofetuin (ASF) (Proc Natl Acad Sci USA. 2013 Mar. 26; 110(13):5052-7.).
Briefly, compounds are serially diluted in DMSO (working dilutions). ASF-coated 384well plates are supplemented with 22.8 μL/well of biotinylated hGal-3 or hGal-1 in assay buffer (i.e. 300-1000 ng/mL biotinylated hGal-3 or hGal-1) to which 1.2 μL of compound working dilutions are added and mixed.
(§2) Plates are incubated for 3 hours at 4° C., then washed with cold assay buffer (3×50 uL), incubated for 1 hour with 25 μL/well of a streptavidin-peroxidase solution (diluted in assay buffer to 80 ng/mL) at 4° C., followed by further washing steps with assay buffer (3×50 uL). Finally, 25 μL/well of ABTS substrate is added.
(§3) The calculated IC50 values may fluctuate depending on the daily assay performance. Fluctuations of this kind are known to those skilled in the art. IC50 values from several measurements are given as mean values.

Assay [1] addresses biotinylated human Gal-3 (hGal-3) (Homo sapiens, UniProt P17931). The assay is described as follows: Competitive binding assay: biotinylated hGal-3 binding to microplate-adsorbed asialofetuin (ASF), spectrophotometric. The method, then:
If not explicitly mentioned otherwise, the inhibition data refer to the binding of biotinylated human Gal-3 (hGal-3).
as §1
The inhibitory activity of compounds is determined in competitive binding assays.
Briefly, compounds are serially diluted in DMSO (working dilutions).
as §2, §3

Setting [2] is: Gal-3 inhibition, Table 3, read-out: IC50.
[3] abbreviates: Table 6, hGal-3, read-out: IC50 (Gal-3 inhibition).

Read-outs that look alike come from different tables or passages of the source.

Chain of biotinylated human Gal-3 (hGal-3) (P17931 whole entry): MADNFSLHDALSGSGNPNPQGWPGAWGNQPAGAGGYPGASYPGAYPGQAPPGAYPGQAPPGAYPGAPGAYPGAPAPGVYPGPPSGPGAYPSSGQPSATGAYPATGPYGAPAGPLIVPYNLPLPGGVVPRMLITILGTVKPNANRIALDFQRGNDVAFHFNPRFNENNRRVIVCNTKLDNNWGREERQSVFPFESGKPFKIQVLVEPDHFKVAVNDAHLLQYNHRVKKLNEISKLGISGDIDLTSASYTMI
Chain of human Gal-1 (hGal-1) (P09382 whole entry): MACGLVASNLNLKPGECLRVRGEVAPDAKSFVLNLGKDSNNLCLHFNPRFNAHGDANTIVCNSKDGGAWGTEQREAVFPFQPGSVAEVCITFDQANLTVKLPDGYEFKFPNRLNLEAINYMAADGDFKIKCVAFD

On to `CCN(C)C(=O)C(S[C@@H]1O[C@H](CO)[C@H](O)[C@H](n2cc(-c3cccc(F)c3)nn2)[C@H]1O)C1(O)CCOCC1` (stereo partly drawn) [Example 1.41.203., N-Ethyl-2-(((2S,3R,4S,5R,6R)-4-(4-(3-fluorophenyl)-1H-1,2,3-triazol-1-yl)-3,5-dihydroxy-6-(hydroxymethyl)tetrahydro-2H-pyran-2-yl)thio)-2-(4-hydroxytetrahydro-2H-pyran-4-yl)-N-methylacetamide], for which the IC50 on human Gal-1 (hGal-1) is 160 nM; in assay [1] (Table 11, hGal-3, read-out: IC50 (Gal-3 inhibition)), 130 nM.

Turning to `CN(C)C(=O)C(S[C@@H]1O[C@H](CO)[C@H](O)[C@H](n2cc(-c3cc(F)c(F)c(F)c3)nn2)[C@H]1O)C(C)(C)O` (stereo partly drawn) [Example 2.31.201., 2-(((2S,3R,4S,5R,6R)-3,5-Dihydroxy-6-(hydroxymethyl)-4-(4-(3,4,5-trifluorophenyl)-1H-1,2,3-triazol-1-yl)tetrahydro-2H-pyran-2-yl)thio)-3-hydroxy-N,N,3-trimethylbutanamide], the IC50 at human Gal-1 (hGal-1) was 1920 nM; in assay [1] (setting [2]), 270 nM.

As to `CCN(CC)C(=O)C(S[C@@H]1O[C@H](CO)[C@H](O)[C@H](n2cc(-c3cc(F)c(F)c(F)c3)nn2)[C@H]1O)C(C)(C)O` (stereo partly drawn) [Example 2.31.202., 2-(((2S,3R,4S,5R,6R)-3,5-Dihydroxy-6-(hydroxymethyl)-4-(4-(3,4,5-trifluorophenyl)-1H-1,2,3-triazol-1-yl)tetrahydro-2H-pyran-2-yl)thio)-N,N-diethyl-3-hydroxy-3-methylbutanamide], the IC50 on human Gal-1 (hGal-1) is 2770 nM; in assay [1] (setting [2]), 160 nM.

Regarding `CCN(C)C(=O)C(S[C@@H]1O[C@H](CO)[C@H](O)[C@H](n2cc(-c3cc(F)c(F)c(F)c3)nn2)[C@H]1O)C(C)(C)O` (stereo partly drawn) [Example 2.31.203., 2-(((2S,3R,4S,5R,6R)-3,5-Dihydroxy-6-(hydroxymethyl)-4-(4-(3,4,5-trifluorophenyl)-1H-1,2,3-triazol-1-yl)tetrahydro-2H-pyran-2-yl)thio)-N-ethyl-3-hydroxy-N,3-dimethylbutanamide], the IC50 amounted to 880 nM on human Gal-1 (hGal-1) and 210 nM in assay [1] (setting [2]).

Turning to `CCN(C)C(=O)[C@@H](S[C@@H]1O[C@H](CO)[C@H](O)[C@H](n2cc(-c3cc(F)c(F)c(F)c3)nn2)[C@H]1O)C(C)(C)O` [Example 2.31.203S., (S)-2-(((2S,3R,4S,5R,6R)-3,5-Dihydroxy-6-(hydroxymethyl)-4-(4-(3,4,5-trifluorophenyl)-1H-1,2,3-triazol-1-yl)tetrahydro-2H-pyran-2-yl)thio)-N-ethyl-3-hydroxy-N,3-dimethylbutanamide], the IC50 on human Gal-1 (hGal-1) is 240 nM; in assay [1] (setting [2]) it was 70 nM.

For `CC1CCN1C(=O)C(S[C@@H]1O[C@H](CO)[C@H](O)[C@H](n2cc(-c3cc(F)c(F)c(F)c3)nn2)[C@H]1O)C(C)(C)O` (stereo partly drawn) [Example 2.31.204., 2-(((2S,3R,4S,5R,6R)-3,5-Dihydroxy-6-(hydroxymethyl)-4-(4-(3,4,5-trifluorophenyl)-1H-1,2,3-triazol-1-yl)tetrahydro-2H-pyran-2-yl)thio)-3-hydroxy-3-methyl-1-(2-methylazetidin-1-yl)butan-1-one], the IC50 is 2800 nM on human Gal-1 (hGal-1) and 140 nM in assay [1] (setting [2]).

Regarding `CC(C)(O)C(S[C@@H]1O[C@H](CO)[C@H](O)[C@H](n2cc(-c3cc(F)c(F)c(F)c3)nn2)[C@H]1O)C(=O)N1CCC1` (stereo partly drawn) [Example 2.31.206., 1-(Azetidin-1-yl)-2-(((2S,3R,4S,5R,6R)-3,5-dihydroxy-6-(hydroxymethyl)-4-(4-(3,4,5-trifluorophenyl)-1H-1,2,3-triazol-1-yl)tetrahydro-2H-pyran-2-yl)thio)-3-hydroxy-3-methylbutan-1-one], the half-inhibitory concentration (IC50) at human Gal-1 (hGal-1) amounted to 1400 nM; in assay [1] (setting [2]) it was 200 nM.

Turning to `CN(Cc1ccccc1)C(=O)C(S[C@@H]1O[C@H](CO)[C@H](O)[C@H](n2cc(-c3cc(F)c(F)c(F)c3)nn2)[C@H]1O)C(C)(C)O` (stereo partly drawn) [Example 2.31.207., N-Benzyl-2-(((2S,3R,4S,5R,6R)-3,5-dihydroxy-6-(hydroxymethyl)-4-(4-(3,4,5-trifluorophenyl)-1H-1,2,3-triazol-1-yl)tetrahydro-2H-pyran-2-yl)thio)-3-hydroxy-N,3-dimethylbutanamide], the IC50 at human Gal-1 (hGal-1) was 570 nM; in assay [1] (setting [3]), 60 nM.

For the compound `CC(C)(O)C(S[C@@H]1O[C@H](CO)[C@H](O)[C@H](n2cc(-c3cc(F)c(F)c(F)c3)nn2)[C@H]1O)C(=O)N1CCCCC1` (stereo partly drawn) [Example 2.31.208., 2-(((2S,3R,4S,5R,6R)-3,5-Dihydroxy-6-(hydroxymethyl)-4-(4-(3,4,5-trifluorophenyl)-1H-1,2,3-triazol-1-yl)tetrahydro-2H-pyran-2-yl)thio)-3-hydroxy-3-methyl-1-(piperidin-1-yl)butan-1-one], the IC50 at human Gal-1 (hGal-1) came to 30 nM; in assay [1] (setting [3]), 70 nM.

Consider `CN(Cc1cn(C)cn1)C(=O)C(S[C@@H]1O[C@H](CO)[C@H](O)[C@H](n2cc(-c3cc(F)c(F)c(F)c3)nn2)[C@H]1O)C(C)(C)O` (stereo partly drawn) [Example 2.31.215., 2-(((2S,3R,4S,5R,6R)-3,5-Dihydroxy-6-(hydroxymethyl)-4-(4-(3,4,5-trifluorophenyl)-1H-1,2,3-triazol-1-yl)tetrahydro-2H-pyran-2-yl)thio)-3-hydroxy-N,3-dimethyl-N-((1-methyl-1H-imidazol-4-yl)methyl)butanamide], for which the IC50 at human Gal-1 (hGal-1) came out at 1680 nM; in assay [1] (setting [3]), 190 nM.

In the case of `CN(CC1CC1)C(=O)C(S[C@@H]1O[C@H](CO)[C@H](O)[C@H](n2cc(-c3cc(F)c(F)c(F)c3)nn2)[C@H]1O)C(C)(C)O` (stereo partly drawn) [Example 2.31.218., N-(Cyclopropylmethyl)-2-(((2S,3R,4S,5R,6R)-3,5-dihydroxy-6-(hydroxymethyl)-4-(4-(3,4,5-trifluorophenyl)-1H-1,2,3-triazol-1-yl)tetrahydro-2H-pyran-2-yl)thio)-3-hydroxy-N,3-dimethylbutanamide], the IC50 amounted to 220 nM on human Gal-1 (hGal-1) and 30 nM in assay [1] (setting [3]).

Regarding `CN(CC(C)(C)C)C(=O)C(S[C@@H]1O[C@H](CO)[C@H](O)[C@H](n2cc(-c3cc(F)c(F)c(F)c3)nn2)[C@H]1O)C(C)(C)O` (stereo partly drawn) [Example 2.31.228., 2-(((2S,3R,4S,5R,6R)-3,5-Dihydroxy-6-(hydroxymethyl)-4-(4-(3,4,5-trifluorophenyl)-1H-1,2,3-triazol-1-yl)tetrahydro-2H-pyran-2-yl)thio)-3-hydroxy-N,3-dimethyl-N-neopentylbutanamide], the IC50 was determined as 1650 nM on human Gal-1 (hGal-1) and 670 nM in assay [1] (setting [3]).

Turning to `COCCN(C)C(=O)C(S[C@@H]1O[C@H](CO)[C@H](O)[C@H](n2cc(-c3cc(F)c(F)c(F)c3)nn2)[C@H]1O)C(C)(C)O` (stereo partly drawn) [Example 2.31.229., 2-(((2S,3R,4S,5R,6R)-3,5-Dihydroxy-6-(hydroxymethyl)-4-(4-(3,4,5-trifluorophenyl)-1H-1,2,3-triazol-1-yl)tetrahydro-2H-pyran-2-yl)thio)-3-hydroxy-N-(2-methoxyethyl)-N,3-dimethylbutanamide], the IC50 on human Gal-1 (hGal-1) was determined as 800 nM; in assay [1] (setting [3]), 110 nM.

As for `CN(CCN1CCOCC1)C(=O)C(S[C@@H]1O[C@H](CO)[C@H](O)[C@H](n2cc(-c3cc(F)c(F)c(F)c3)nn2)[C@H]1O)C(C)(C)O` (stereo partly drawn) [Example 2.31.230., 2-(((2S,3R,4S,5R,6R)-3,5-Dihydroxy-6-(hydroxymethyl)-4-(4-(3,4,5-trifluorophenyl)-1H-1,2,3-triazol-1-yl)tetrahydro-2H-pyran-2-yl)thio)-3-hydroxy-N,3-dimethyl-N-(2-morpholinoethyl)butanamide], the IC50 on human Gal-1 (hGal-1) amounted to 1250 nM; in assay [1] (setting [3]) it was 110 nM.

As to `CCN(C)C(=O)C(S[C@@H]1O[C@H](CO)[C@H](O)[C@H](n2cc(-c3cc(F)c(F)c(F)c3)nn2)[C@H]1O)C(O)(CC)CC` (stereo partly drawn) [Example 2.32.203., 2-(((2S,3R,4S,5R,6R)-3,5-Dihydroxy-6-(hydroxymethyl)-4-(4-(3,4,5-trifluorophenyl)-1H-1,2,3-triazol-1-yl)tetrahydro-2H-pyran-2-yl)thio)-N,3-diethyl-3-hydroxy-N-methylpentanamide], the IC50 is 1890 nM on human Gal-1 (hGal-1) and 490 nM in assay [1] (setting [3]).

On to `CCN(C)C(=O)[C@H](S[C@@H]1O[C@H](CO)[C@H](O)[C@H](n2cc(-c3cc(F)c(F)c(F)c3)nn2)[C@H]1O)C(O)(CC)CC` [Example 2.32.203R., (R)-2-(((2S,3R,4S,5R,6R)-3,5-Dihydroxy-6-(hydroxymethyl)-4-(4-(3,4,5-trifluorophenyl)-1H-1,2,3-triazol-1-yl)tetrahydro-2H-pyran-2-yl)thio)-N,3-diethyl-3-hydroxy-N-methylpentanamide], for which the IC50 on human Gal-1 (hGal-1) came to 30800 nM; in assay [1] (setting [3]), 4550 nM.

Take `CCN(C)C(=O)[C@@H](S[C@@H]1O[C@H](CO)[C@H](O)[C@H](n2cc(-c3cc(F)c(F)c(F)c3)nn2)[C@H]1O)C(O)(CC)CC` [Example 2.32.203S., (S)-2-(((2S,3R,4S,5R,6R)-3,5-Dihydroxy-6-(hydroxymethyl)-4-(4-(3,4,5-trifluorophenyl)-1H-1,2,3-triazol-1-yl)tetrahydro-2H-pyran-2-yl)thio)-N,3-diethyl-3-hydroxy-N-methylpentanamide]: the IC50 on human Gal-1 (hGal-1) is 730 nM; in assay [1] (setting [3]), 240 nM.
